The values below come from US8541575B2, “3,4-diarylpyrazoles as protein kinase inhibitors” (Nerviano Medical Sciences S.R.L., priority 2008, dated 2013).

Holding throughout (assay type): cell-based
Assay [1] has as its system human melanoma cells Mewo (with wild-type B-Raf). Kind of assay: In vitro cell proliferation assay, Mewo. As to conditions: 72 hours treatment, cellular ATP readout. As for the experimental part:
(§1) In Vitro Cell Proliferation Assay
(§2) Exponentially growing human melanoma cells A375 (with a mutated B-RAF) and human melanoma cells Mewo (with wild-type B-Raf) were seeded and incubated at 37° C. in a humidified 5% CO2 atmosphere. After 24 hours, scalar doses of the compound were added to the medium and cells oncubated for 72 hours. At the end of treatment, cells were washed and counted. Cell number was determined by a cellular adenosine triphosphate monitoring system. Cell proliferation was compared to control cells and the concentration inhibiting cell growth by 50% was calculated.

Assay [2] concerns p-MAPK (T202/Y204) in A375 human melanoma cells, having a mutated B-RAF. Description: p-MAPK (T202/Y204) ArrayScan assay. The settings on record: A-375, treated 1.5 or 2 hours, p-MAPK cytoplasmatic fluorescence, read-out: Array Scan A375 IC50. On the procedure: p-MAPK (T202/Y204) ArrayScan Assay
A375 human melanoma cells, having a mutated B-RAF, are seeded in 384-well poly-lysine coated plates (Matrix) at a density of 1000 cells/well with appropriate medium supplemented with 10% FCS and incubated for 16-24 hours. Cells are treated for 1.5 or 2 hours with increasing doses of compounds (starting dose 10 μM, dilution factor 2.5). At the end of the treatment cells are fixed with p-formaldehyde 3.7% for 15-30 min, then washed twice with D-PBS […] and permeabilized with D-PBS containing 0.1% Triton X-100 and 1% BSA (Sigma-Aldrich) for 15 minutes at room temperature (staining solution). Anti-phospho-MAPK (T202/Y204) monoclonal antibody E10 (Cell Signaling, cat. #9106) diluted 1:100 is added in staining solution and incubated for 1 hour at 37° C. After removal of the primary antibody solution, the anti-mouse Cy™2-conjugated (Green) secondary antibody (Amersham) diluted 1:500 in staining solution containing 2 μg/ml DAPI is added. The plate is incubated for 1 hour at 37° C., washed twice and then red with Cellomics' ArrayScan VTI (4 fields/well, CytoNucTrans algorithm).
The parameter “MEAN_RingAvgIntenCh2”, which measures the mean cytoplasmatic fluorescence intensity associated to p-MAPK staining, is reported as the final result.

The subject of assay [3] is human melanoma cells A375 (with a mutated B-RAF). Description: In vitro cell proliferation assay, A375. The settings on record: A-375, 72 hours treatment, cellular ATP readout. As for the experimental part: as §1, §2

A word on the IC50: it is the midpoint of a concentration-inhibition curve.

Turning to `O=C(Nc1ccc(C(F)(F)F)cc1)Nc1cccc(-c2n[nH]cc2-c2ccncc2)c1` [Cmpd. 1, 1-[3-(4-Pyridin-4-yl-1H-pyrazol-3-yl)-phenyl]-3-(4-trifluoromethyl-phenyl)-urea], the IC50 in assay [1] was 8.6 µM; in assay [2], 0.93 µM; in assay [3] it was 1.02 µM.
The like results for `O=S(=O)(Nc1cccc(-c2n[nH]cc2-c2ccncc2)c1)c1cc(F)ccc1F` [Cmpd. 2, 2,5-Difluoro-N-[3-(4-pyridin-4-yl-1H-pyrazol-3-yl)-phenyl]-benzenesulfonamide] were, in that order, greater than 10 µM, 0.64 µM and 1.4 µM.
For the compound `CC(C)(C)c1ccc(NC(=O)c2cccc(-c3n[nH]cc3-c3ccncc3)c2)cc1` [Cmpd. 4, N-(4-tert-Butyl-phenyl)-3-(4-pyridin-4-yl-1H-pyrazol-3-yl)-benzamide], the IC50 was found to be 5.84 µM in assay [1], 1.26 µM in assay [2] and 2.31 µM in assay [3].
In the same order, the values of `O=C(Nc1cccc(-c2nn(CCF)cc2-c2ccncc2)c1)Nc1ccc(Cl)c(C(F)(F)F)c1` [Cmpd. 5, 1-(4-Chloro-3-trifluoromethyl-phenyl)-3-{3-[1-(2-fluoro-ethyl)-4-pyridin-4-yl-1H-pyrazol-3-yl]-phenyl}-urea] are 6.76 µM, 2.09 µM and 4.31 µM.
Take `O=S(=O)(Nc1cccc(-c2n[nH]cc2-c2ccncc2)c1)c1ccco1` [Cmpd. 6, Furan-2-sulfonic acid [3-(4-pyridin-4-yl-1H-pyrazol-3-yl)-phenyl]amide]: the IC50 in assay [1] is greater than 10 µM; in assay [2], 5.47 µM; in assay [3] it was 7.52 µM.
The like results for `O=S(=O)(Nc1cccc(-c2n[nH]cc2-c2ccncc2)c1)c1ccsc1` [Cmpd. 7, Thiophene-3-sulfonic acid [3-(4-pyridin-4-yl-1H-pyrazol-3-yl)-phenyl]-amide] were, in that order, greater than 10 µM, 5.52 µM and 7.38 µM.
In the case of `O=C(Nc1ccc(C(F)(F)F)cc1)Nc1cccc(-c2nn(CCF)cc2-c2ccncc2)c1` [Cmpd. 13, 1-{3-[1-(2-Fluoro-ethyl)-4-pyridin-4-yl-1H-pyrazol-3-yl]-phenyl}-3-(4-trifluoromethyl-phenyl)-urea], the values for the IC50 in assay [1], in assay [2] and in assay [3] were 8.11 µM, 0.56 µM and 1.38 µM, respectively.
The like results for `O=C(Nc1ccc(C(F)(F)F)cc1)Nc1cccc(-c2nn(CCO)cc2-c2ccncc2)c1` [Cmpd. 14, 1-{3-[1-(2-Hydroxy-ethyl)-4-pyridin-4-yl-1H-pyrazol-3-yl]-phenyl}-3-(4-trifluoromethyl-phenyl)-urea] were, in that order, greater than 10 µM, 2.63 µM and 6.94 µM.
For `O=C(Cc1ccc(C(F)(F)F)cc1)Nc1cccc(-c2n[nH]cc2-c2ccncc2)c1` [Cmpd. 16, N-[3-(4-Pyridin-4-yl-1H-pyrazol-3-yl)-phenyl]-2-(4-trifluoromethyl-phenyl)-acetamide], the values for the IC50 in assay [1], in assay [2] and in assay [3] were greater than 10 µM, 1.34 µM and 2.89 µM, respectively.
For `CC(=O)Nc1cc(-c2c[nH]nc2-c2cccc(NC(=O)Nc3ccc(C(F)(F)F)cc3)c2)ccn1` [Cmpd. 17, N-[4-(3-{3-[3-(4-Trifluoromethyl-phenyl)-ureido]-phenyl}-1H-pyrazol-4-yl)-pyridin-2-yl]-acetamide], the values for the IC50 in assay [1], in assay [2] and in assay [3] were 9.4 µM, less than 0.04 µM and 0.25 µM, respectively.
As to `O=S(=O)(Nc1ccc(F)c(-c2n[nH]cc2-c2ccncc2)c1F)c1cc(F)ccc1F` [Cmpd. 18, N-[2,4-Difluoro-3-(4-pyridin-4-yl-1H-pyrazol-3-yl)-phenyl]-2,5-difluoro-benzenesulfonamide], the IC50 in assay [1] is greater than 10 µM; in assay [2], 0.36 µM; in assay [3], 0.72 µM.
In the same order, the values of `O=S(=O)(Nc1ccc(F)c(-c2n[nH]cc2-c2ccncc2)c1F)c1ccsc1` [Cmpd. 19, Thiophene-3-sulfonic acid [2,4-difluoro-3-(4-pyridin-4-yl-1H-pyrazol-3-yl)-phenyl]-amide] are greater than 10 µM, 0.83 µM and 3.17 µM.
Take `O=S(=O)(Nc1ccc(F)c(-c2n[nH]cc2-c2ccncc2)c1F)c1ccco1` [Cmpd. 20, Furan-2-sulfonic acid [2,4-difluoro-3-(4-pyridin-4-yl-1H-pyrazol-3-yl)-phenyl]amide]: the IC50 in assay [1] was greater than 10 µM; in assay [2], 5.48 µM; in assay [3], 9.14 µM.
The like results for `CCCS(=O)(=O)Nc1ccc(F)c(-c2n[nH]cc2-c2ccncc2)c1F` [Cmpd. 21, Propane-1-sulfonic acid [2,4-difluoro-3-(4-pyridin-4-yl-1H-pyrazol-3-yl)-phenyl]-amide] were, in that order, greater than 10 µM, 1.79 µM and 4.28 µM.
The like results for `CCOC(=O)n1cc(-c2ccncc2)c(-c2cccc(NC(=O)Nc3ccc(C(F)(F)F)cc3)c2)n1` [Cmpd. 47, 4-Pyridin-4-yl-3-{3-[3-(4-trifluoromethyl-phenyl)-ureido]-phenyl}-pyrazole-1-carboxylic acid ethyl ester] were, in that order, greater than 10 µM, 0.75 µM and 2.66 µM.
The like results for `Cn1cc(-c2ccncc2)c(-c2cccc(NC(=O)Nc3ccc(C(F)(F)F)cc3)c2)n1` [Cmpd. 48, 1-[3-(1-Methyl-4-pyridin-4-yl-1H-pyrazol-3-yl)-phenyl]-3-(4-trifluoromethyl-phenyl)-urea] were, in that order, greater than 10 µM, 1.79 µM and 3.86 µM.
In the case of `CC(C)Cn1cc(-c2ccncc2)c(-c2cccc(NC(=O)Nc3ccc(C(F)(F)F)cc3)c2)n1` [Cmpd. 50, 1-[3-(1-Isobutyl-4-pyridin-4-yl-1H-pyrazol-3-yl)-phenyl]-3-(4-trifluoromethyl-phenyl)-urea], the results for the IC50 in assay [1], in assay [2] and in assay [3] were 5.09 µM, 1.12 µM and 1.9 µM, respectively.
The like results for `CCn1cc(-c2ccncc2)c(-c2c(F)ccc(NS(=O)(=O)c3cc(F)ccc3F)c2F)n1` [Cmpd. 51, N-[3-(1-Ethyl-4-pyridin-4-yl-1H-pyrazol-3-yl)-2,4-difluoro-phenyl]-2,5-difluoro-benzenesulfonamide] were, in that order, greater than 10 µM, less than 0.01 µM and less than 0.02 µM.
In the same order, the values of `CCn1cc(-c2ccncc2)c(-c2c(F)ccc(NS(=O)(=O)c3ccccc3F)c2F)n1` [Cmpd. 57, N-[3-(1-Ethyl-4-pyridin-4-yl-1H-pyrazol-3-yl)-2,4-difluoro-phenyl]-2-fluoro-benzenesulfonamide] are greater than 10 µM, 0.02 µM and 0.33 µM.
In the same order, the values of `CCn1cc(-c2ccncc2)c(-c2c(F)ccc(NS(=O)(=O)c3cccc(F)c3)c2F)n1` [Cmpd. 58, N-[3-(1-Ethyl-4-pyridin-4-yl-1H-pyrazol-3-yl)-2,4-difluoro-phenyl]-3-fluoro-benzenesulfonamide] are greater than 10 µM, 0.04 µM and 0.29 µM.
For the compound `Cc1ccc(NC(=O)Nc2cccc(-c3n[nH]cc3-c3ccncc3)c2)cc1` [compound 8, 1-[3-(4-Pyridin-4-yl-1H-pyrazol-3-yl)-phenyl]-3-p-tolyl-urea], the IC50 in assay [1] is greater than 10 µM; in assay [2], 1.45 µM; in assay [3], 4.48 µM.
Regarding `O=C(Nc1ccc(Cl)cc1)Nc1cccc(-c2n[nH]cc2-c2ccncc2)c1` [compound 9, 1-(4-Chloro-phenyl)-3-[3-(4-pyridin-4-yl-1H-pyrazol-3-yl)-phenyl]-urea], the IC50 is greater than 10 µM in assay [1], 4.8 µM in assay [2] and 4.1 µM in assay [3].
In the same order, the values of `CCn1cc(-c2ccncc2)c(-c2cccc(NC(=O)Nc3ccc(C(F)(F)F)cc3)c2)n1` [compound 10, 1-[3-(1-Ethyl-4-pyridin-4-yl-1H-pyrazol-3-yl)-phenyl]-3-(4-trifluoromethyl-phenyl)-urea] are 7.5 µM, 0.54 µM and 1.63 µM.
In the same order, the values of `N#CCn1cc(-c2ccncc2)c(-c2cccc(NC(=O)Nc3ccc(C(F)(F)F)cc3)c2)n1` [compound 11, 1-[3-(1-Cyanomethyl-4-pyridin-4-yl-1H-pyrazol-3-yl)-phenyl]-3-(4-trifluoromethyl-phenyl)-urea] are 7.69 µM, 0.23 µM and 1.13 µM.
`Nc1cc(-c2c[nH]nc2-c2cccc(NC(=O)Nc3ccc(C(F)(F)F)cc3)c2)ccn1` [compound 12, 1-{3-[4-(2-aminopyridin-4-yl)-1H-pyrazol-3-yl]phenyl}-3-[4(trifluoromethyl)-phenyl]urea]: the values for the IC50 in assay [1], in assay [2] and in assay [3] were greater than 10 µM, 4.65 µM and 5.96 µM, respectively.
